The text below walks through data of ChEMBL document CHEMBL6109144, “Discovery of New Difluorocyclobutyl Derivatives as Effective Glucagon-Like Peptide-1 Receptor Agonists with Reduced hERG Inhibitory Activities” (J Med Chem, 2025).

pEC50: −log10 of the molar value. The source made the active and inactive calls. The rule behind the calls is not given here.

Series [1] deals with T1, Glucagon-like peptide 1 receptor (Homo sapiens, UniProt P43220). Nature of the series: Binding affinity to GLP-1R (unknown origin) at 500 nM measured at 30 to 120 mins by HTRF analysis relative to control. The note with it: time 30-120 min.
T1 sequence (P43220 whole entry): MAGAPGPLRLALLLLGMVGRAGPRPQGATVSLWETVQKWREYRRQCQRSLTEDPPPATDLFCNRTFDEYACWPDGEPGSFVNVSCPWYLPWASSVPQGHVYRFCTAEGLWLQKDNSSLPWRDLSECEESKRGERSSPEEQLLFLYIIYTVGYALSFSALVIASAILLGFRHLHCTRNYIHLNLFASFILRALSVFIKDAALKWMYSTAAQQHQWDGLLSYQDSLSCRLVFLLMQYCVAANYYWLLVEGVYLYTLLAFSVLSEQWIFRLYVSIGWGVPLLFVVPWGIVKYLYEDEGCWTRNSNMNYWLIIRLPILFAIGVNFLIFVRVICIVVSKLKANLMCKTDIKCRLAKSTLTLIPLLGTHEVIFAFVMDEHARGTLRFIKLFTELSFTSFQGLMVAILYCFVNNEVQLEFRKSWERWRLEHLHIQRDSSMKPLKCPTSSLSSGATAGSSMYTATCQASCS
The nature of series [2]: Fraction of the dose absorbed in Sprague-Dawley rat at 5 mg/kg, po measured up to 24 hrs by LC-MS/MS analysis. The series is classed as ADME, organism-based. The note with it: in vivo, read-out: Fabs.
Series [3] addresses T1, Glucagon-like peptide 1 receptor. Nature of the series: Agonist activity at human GLP-1R expressed in HEK293 cells assessed as beta-arrestin2 recruitment incubated for 5 mins by bioluminescence based Envision multiplate reader analysis. The series is classed as functional, cell-based. (In general: Activated receptors often draw arrestin, which recruitment assays turn into a signal.)

The target of series [4] is T2, hERG (KCNH2) (Homo sapiens, UniProt Q12809). As to the kind of experiment: Inhibition of hERG at 10 uM at -80 mV holding potential by whole-cell patch clamp analysis relative to control. The series is classed as toxicity.
T2 sequence (Q12809 whole entry): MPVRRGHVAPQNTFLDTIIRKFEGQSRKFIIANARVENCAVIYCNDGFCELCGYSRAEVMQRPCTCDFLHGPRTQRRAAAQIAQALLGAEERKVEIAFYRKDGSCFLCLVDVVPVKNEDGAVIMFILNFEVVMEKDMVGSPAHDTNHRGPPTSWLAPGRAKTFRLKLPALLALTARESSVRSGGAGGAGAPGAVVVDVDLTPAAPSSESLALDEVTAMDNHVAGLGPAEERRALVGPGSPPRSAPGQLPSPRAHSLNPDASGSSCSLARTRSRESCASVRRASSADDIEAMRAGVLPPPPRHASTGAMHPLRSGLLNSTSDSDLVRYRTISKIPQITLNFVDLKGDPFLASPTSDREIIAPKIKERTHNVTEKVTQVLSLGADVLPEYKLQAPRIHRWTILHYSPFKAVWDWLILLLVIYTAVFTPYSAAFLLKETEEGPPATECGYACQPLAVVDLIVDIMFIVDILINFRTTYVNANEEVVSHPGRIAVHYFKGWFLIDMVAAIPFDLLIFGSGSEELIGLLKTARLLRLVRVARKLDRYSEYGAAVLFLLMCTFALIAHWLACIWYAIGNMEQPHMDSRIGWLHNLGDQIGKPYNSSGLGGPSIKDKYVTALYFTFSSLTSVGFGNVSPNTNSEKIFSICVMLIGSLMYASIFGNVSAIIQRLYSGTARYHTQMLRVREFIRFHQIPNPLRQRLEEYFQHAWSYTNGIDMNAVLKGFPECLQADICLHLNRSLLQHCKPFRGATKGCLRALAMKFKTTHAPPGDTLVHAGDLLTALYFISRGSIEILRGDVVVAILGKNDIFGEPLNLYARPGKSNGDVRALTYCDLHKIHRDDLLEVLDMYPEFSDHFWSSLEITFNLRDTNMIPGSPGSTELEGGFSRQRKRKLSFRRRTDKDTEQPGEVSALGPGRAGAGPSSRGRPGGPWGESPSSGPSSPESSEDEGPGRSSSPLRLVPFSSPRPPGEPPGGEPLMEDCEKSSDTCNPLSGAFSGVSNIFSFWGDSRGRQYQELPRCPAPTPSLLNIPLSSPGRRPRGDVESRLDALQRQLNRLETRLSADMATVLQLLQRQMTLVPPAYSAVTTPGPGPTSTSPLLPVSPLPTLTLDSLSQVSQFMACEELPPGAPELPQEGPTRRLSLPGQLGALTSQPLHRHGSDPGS
The nature of series [5]: Induction of insulin release in human EndoC-betaH5 cells incubated for 1 hr by ELISA analysis. The series is classed as functional, cell-based. The settings on record: EndoC-betaH5, 1 h.
For series [6], the system named is Rattus norvegicus. Nature of the series: Antidiabetic activity in human GLP-1R knockin Sprague-Dawley rat model assessed as increase in rate of glucose disappearance at 1 to 10 mg/kg, po pretreated with compound for 15 mins by IPGTT analysis. The note with it: dose 1-10 mg/kg. The series is classed as functional, organism-based.
Another series can be described thus: in vivo. The note with it: Sprague-Dawley, rat, po, 5 mg/kg.
Another series has as its target Glucagon receptor (Homo sapiens, UniProt P47871). Nature of the series: Agonist activity at N-terminal HA-tagged human GCGR expressed in CHO cells co-transfected with pcDNA3.0 assessed as effect on cAMP accumulation incubated for 30 mins by microplate reader analysis. The series is classed as functional, cell-based. On the technique in general: Changes in cAMP serve as a functional read-out for many G protein-coupled receptors.

The nature of series [7]: Half life in Sprague-Dawley rat at 5 mg/kg, po measured up to 24 hrs by LC-MS/MS analysis. The series is classed as ADME, organism-based. The settings on record: in vivo.
Series [8] is described as follows: AUC (0 to infinity) in Sprague-Dawley rat at 5 mg/kg, po measured up to 24 hrs by LC-MS/MS analysis. The series is classed as ADME, organism-based. The settings on record: in vivo.
Series [9] is described as follows: Cmax in Sprague-Dawley rat at 5 mg/kg, po measured up to 24 hrs by LC-MS/MS analysis. The series is classed as ADME, organism-based. The note with it: in vivo.
The test system of series [10] is Rattus norvegicus. As to the kind of experiment: Antidiabetic activity in human GLP-1R knockin po dosed Sprague-Dawley rat model assessed as increase in glucose-simulated insulin secretion pretreated with compound for 15 mins followed by D-glucose administration and measured after 30 mins by ELISA analysis. The note with it: dose 1-10 mg/kg, time 45.0 min. The series is classed as functional, organism-based.

In series [11] the target is T2, hERG (KCNH2). Nature of the series: Inhibition of hERG at 1 uM at -80 mV holding potential by whole-cell patch clamp analysis relative to control. The series is classed as toxicity. A general note: hERG is a cardiac potassium channel; its block is linked to QT prolongation.
In series [12] the target is T3, Gastric inhibitory polypeptide receptor (Homo sapiens, UniProt P48546).
T3 sequence (P48546 whole entry): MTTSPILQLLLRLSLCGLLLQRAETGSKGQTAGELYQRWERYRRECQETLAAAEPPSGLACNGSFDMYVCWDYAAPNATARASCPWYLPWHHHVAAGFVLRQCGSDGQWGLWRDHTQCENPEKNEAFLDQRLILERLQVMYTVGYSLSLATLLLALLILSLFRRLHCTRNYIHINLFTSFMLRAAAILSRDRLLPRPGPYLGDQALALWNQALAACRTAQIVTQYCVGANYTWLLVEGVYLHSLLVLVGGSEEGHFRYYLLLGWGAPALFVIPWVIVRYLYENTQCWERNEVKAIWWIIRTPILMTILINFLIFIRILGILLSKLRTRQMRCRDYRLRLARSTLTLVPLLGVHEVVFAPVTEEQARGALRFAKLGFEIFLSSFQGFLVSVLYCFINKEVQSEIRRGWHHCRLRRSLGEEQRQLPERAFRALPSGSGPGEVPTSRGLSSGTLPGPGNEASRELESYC
As to the kind of experiment: Agonist activity at N-terminal HA-tagged human GIPR expressed in CHO cells co-transfected with pcDNA3.0 assessed as effect on cAMP accumulation incubated for 30 mins by microplate reader analysis. The series is classed as functional, cell-based.

The target of series [13] is T1, Glucagon-like peptide 1 receptor. Nature of the series: Binding affinity to GLP-1R (unknown origin) at 5000 nM measured at 30 to 120 mins by HTRF analysis relative to control. The settings on record: filed as agonist, time 30-120 min.
The target is the same in series [14]. As to the kind of experiment: Agonist activity at N-terminal hemagglutinin-tagged human GLP-1R expressed in CHO cells co-transfected with pcDNA3.0 assessed as increase in intracellular cAMP accumulation incubated for 30 mins by microplate reader analysis. The series is classed as functional, cell-based.
Series [15] deals with T4, Glucagon-like peptide 2 receptor (Homo sapiens, UniProt O95838).
T4 sequence (O95838 whole entry): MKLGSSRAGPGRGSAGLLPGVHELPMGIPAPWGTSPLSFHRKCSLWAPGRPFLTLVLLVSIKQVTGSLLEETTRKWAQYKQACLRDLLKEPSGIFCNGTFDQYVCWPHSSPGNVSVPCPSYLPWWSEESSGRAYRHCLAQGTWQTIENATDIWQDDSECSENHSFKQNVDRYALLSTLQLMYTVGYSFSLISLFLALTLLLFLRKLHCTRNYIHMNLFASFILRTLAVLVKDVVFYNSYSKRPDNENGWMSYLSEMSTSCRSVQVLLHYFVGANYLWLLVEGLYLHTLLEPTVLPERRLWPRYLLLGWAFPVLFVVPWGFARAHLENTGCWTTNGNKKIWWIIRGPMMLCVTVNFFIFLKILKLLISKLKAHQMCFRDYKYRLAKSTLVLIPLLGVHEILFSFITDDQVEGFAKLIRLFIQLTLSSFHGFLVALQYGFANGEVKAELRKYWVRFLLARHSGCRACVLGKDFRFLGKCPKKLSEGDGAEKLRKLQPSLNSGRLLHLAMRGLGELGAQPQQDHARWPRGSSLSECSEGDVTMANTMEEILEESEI
As to the kind of experiment: Agonist activity at N-terminal HA-tagged human GLP-2R expressed in CHO cells co-transfected with pcDNA3.0 assessed as effect on cAMP accumulation incubated for 30 mins by microplate reader analysis. The series is classed as functional, cell-based.

Series [16] addresses T1, Glucagon-like peptide 1 receptor. As to the kind of experiment: Agonist activity at human GLP-1R expressed in HEK293 cells assessed as beta-arrestin1 recruitment incubated for 5 mins by bioluminescence based Envision multiplate reader analysis. The series is classed as functional, cell-based.
Series [17] can be described thus: Observed apparent oral clearance in Sprague-Dawley rat at 5 mg/kg, po measured up to 24 hrs by LC-MS/MS analysis. The settings on record: in vivo. The series is classed as ADME, organism-based.
The subject of series [18] is Rattus norvegicus. Nature of the series: Antidiabetic activity in human GLP-1R knockin Sprague-Dawley rat model assessed as increase in rate of insulin secretion at 1 to 10 mg/kg, po pretreated with compound for 15 mins by IPGTT analysis. The series is classed as functional, organism-based. The note with it: dose 1-10 mg/kg.

Chain of Glucagon receptor (P47871 whole entry): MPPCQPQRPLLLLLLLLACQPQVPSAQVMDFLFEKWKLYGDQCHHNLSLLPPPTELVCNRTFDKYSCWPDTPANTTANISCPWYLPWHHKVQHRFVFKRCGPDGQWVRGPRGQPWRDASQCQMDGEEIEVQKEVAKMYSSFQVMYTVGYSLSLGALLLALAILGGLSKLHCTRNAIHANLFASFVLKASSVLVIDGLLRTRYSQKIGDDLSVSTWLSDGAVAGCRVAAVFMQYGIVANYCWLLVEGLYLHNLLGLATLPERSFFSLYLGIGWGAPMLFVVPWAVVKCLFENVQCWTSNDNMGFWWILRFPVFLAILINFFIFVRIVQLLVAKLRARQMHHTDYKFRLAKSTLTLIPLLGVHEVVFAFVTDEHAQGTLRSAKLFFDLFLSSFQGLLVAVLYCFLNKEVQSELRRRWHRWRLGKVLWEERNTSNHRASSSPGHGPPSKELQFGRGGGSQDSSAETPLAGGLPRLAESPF

For the molecule `O=C(O)c1ccc2nc(CN3CC=C(c4cccc(OCc5ccc(C6CC(F)(F)C6)cc5F)n4)CC3)n(C[C@@H]3CCO3)c2n1`, the Activity in series [1] is 35.5%; with Rattus norvegicus [10], “Dose-dependent-effect”; in series [13], 71.2%. In addition, the Fa at 24 h in series [2] worked out at 54.2%. The negative logarithm of the EC50 (pEC50) (commonly −log10 of the EC50, conventionally taken in molar units) in series [3] was 6.06; in series [5] it was 7.64; at Glucagon receptor it was less than 4.70; in series [12], less than 4.70; in series [14], 10.32; in series [15], less than 4.70. In addition, the negative-log EC50 (pEC50) in [16] is 5.69. Also, 10 µM produced 37.6% inhibition against hERG (KCNH2) [4]. In addition, the outcome in the series with Rattus norvegicus [6] and with Rattus norvegicus [18] was Active. The Tmax (usually the time at which the peak concentration occurs) at 24 h in the series “in vivo” was 2.67 h. The half-life (in general, how long it takes for the measured level to halve) in series [7] is 3.32 h. The AUC(0-inf) (as a rule, the area under the concentration-time curve extrapolated to infinity) in [8] came out at 1380 ng·h/mL. For the same molecule, in series [9], the concentration peaked (Cmax) at 256 ng/mL. Moreover, at 1 µM the inhibition against hERG (KCNH2) [11] was 0.6%. Besides, in series [17], the apparent clearance CL/F (commonly the apparent clearance, not corrected for the fraction that reaches the circulation) came out at 65.8 mL/min/kg.
